Reference: PMC12040169 (PLOS Biology, 2025)

Experiment: in vitro
Conditions: human, hela cells, % viability

| SMILES | viability at 28.5 h, 10 µM |
| --- | --- |
| O=C1CCC(=O)N1CCOc1nccnc1OC1CCN(CCc2ccccn2)CC1 [CBK084360] | 99.5% |
| CCc1ccc2c(COC(=O)c3cccnc3SC)cc(=O)oc2c1 [CBK297486] | 85% |
| O=c1[nH]nc2c(Sc3cccc(F)c3)nccn12 [CBK288508] | 90.4% |
| S=C(NCCc1ccccc1)NCCn1cc(Cl)cn1 [CBK266912] | 103% |
| CCN(CC)C(=O)C1CCCN(C(=O)NCc2cc(C)on2)C1 (centres unmarked) [CBK156114] | 89.5% |
| COCCn1cc(C(=O)N2CCCC2c2cc(C)on2)c2ccccc21 (centres unmarked) [CBK305289] | 90.4% |
| O=C(NCc1ccncc1)Nc1ccc([N+](=O)[O-])cc1 [CBK264319] | 110% |
| Cc1ccc(-n2c(=O)[nH]c3c(C(=O)Nc4ccccc4)cn(C)c3c2=O)cc1 [CBK287651] | 93.9% |
| COc1ccccc1CC(C)NC(=O)c1ccc2nc(C)[nH]c2c1 (centres unmarked) [CBK283261] | 86.1% |
| Cn1c(CNC2CCCCC2)nc2ccccc21 [CBK058416] | 111% |
| Cc1ccc2nc(CN3CCC(CNc4ccccn4)C3)cc(=O)n2c1 (centres unmarked) [CBK306340] | 83.7% |
| C#CCNC(=O)CC[C@H]1CNC(=O)[C@@H]2[C@@H](CCN2Cc2nc3ccccc3n2C)N1C [CBK289018] | 102% |
| CCOC(=O)N1CCC(NS(=O)(=O)c2cc(C(=O)OC)n(C)c2)CC1 [CBK304688] | 92.3% |
| CC(CC(=O)O)CC(=O)NNc1ncc(Cl)cc1Cl (centres unmarked) [CBK264398] | 102% |
| Cc1c(NC(=O)COc2ccc([N+](=O)[O-])cc2)cccc1-c1nc2ncccc2o1 [CBK263912] | 105% |
| NC(=O)c1c(NC(=O)Cn2cnc([N+](=O)[O-])n2)sc2c1CCCC2 [CBK027935] | 98.6% |
| COc1ccc(OC)c(-n2c(C)cn3c4c(=O)[nH]c(=O)n(C)c4nc23)c1 [CBK141314] | 59.5% |
| CC(=O)N1CCC[C@H]2NC(=O)CNC(=O)C3(C/C=C/C[C@H]21)CCN(Cc1ccccc1O)CC3 [CBK292054] | 99.3% |
| CCOC(=O)c1[nH]c(C)c(C(=O)N/N=C/c2ccc(-c3ccc(Cl)cc3)o2)c1C [CBK262503] | 95% |
| O=C(N1CCc2ccc(S(=O)(=O)Nc3ccc(-c4nnn[nH]4)cc3)cc2C1)C(F)(F)F [CBK155437] | 99.9% |
| O=S(=O)(Nc1ccc2[nH]ncc2c1)c1ccc(Br)cc1C(F)(F)F [CBK062529] | 100% |
| CC(Oc1ccc(Cl)cc1Cl)C(=O)Nc1ccc(O)cc1 (centres unmarked) [CBK264120] | 94.8% |

| SMILES | viability at 28.5 h, 10 µM |
| --- | --- |
| O=C(Cn1c(=O)n(Cc2ccco2)c2ncccc21)N1CCCCC1 [CBK283862] | 89.2% |
| CN1CCN(c2ccc(C(=O)N3CCC(F)CC3)cc2)CC1 [CBK200265] | 109% |
| O=c1[nH]cc(S(=O)(=O)N2CCN(Cc3ccccc3Cl)CC2)c(=O)[nH]1 [CBK285889] | 97.1% |
| O=C1c2ccc(Oc3cccc(Oc4ccc5c(c4)C(=O)N(c4ccccn4)C5=O)c3)cc2C(=O)N1c1ccccn1 [CBK261397] | 89.8% |
| OC(CNCCc1cccnc1)COc1cccc2c1CCCC2 (centres unmarked) [CBK002237] | 106% |
| O=C1CN(c2cccc(C(F)(F)F)c2)C(=O)N1c1ccc(Cl)cc1 [CBK122769] | 108% |
| COc1nccnc1N1CCN(CC(=O)Nc2c(C)cccc2C)CC1 [CBK084220] | 89.1% |
| CCc1nc2ccccc2n1C1CCN(C(=O)Cc2cccnc2)CC1 [CBK306389] | 100% |
| CCC(SC1=NCCS1)C(=O)Nc1ccc(S(N)(=O)=O)cc1 (centres unmarked) [CBK263027] | 95.3% |
| COc1cccc2cc(C(=O)NCC3COc4ccccc4O3)oc12 (centres unmarked) [CBK149791] | 109% |
| CC(NC(=O)c1ccc(-n2ccnc2)c(-n2cccc2)c1)c1ccco1 (centres unmarked) [CBK284808] | 98% |
| Nc1ncc(-c2cccc(-c3ccccc3)c2)nc1NCc1cccnc1 [CBK063491] | 93.5% |
| COc1ccccc1-c1nccnc1NCc1cccs1 [CBK088682] | 88% |
| CC1(C)CC(N(Cc2ccc(F)cc2)Cc2c[nH]cn2)CC(C)(C)N1 [CBK282540] | 102% |
| CCn1cnc(S(=O)(=O)N2CCC(OCc3ccccc3)CC2)c1 [CBK305228] | 73.1% |
| Cn1cccc1C(=O)N[C@H]1C[C@H]2C(=O)Nc3cc(Cl)ccc3C(=O)N2C1 [CBK289364] | 86.7% |
| CCCOc1ccc(S(=O)(=O)NCc2ccncc2)c2ccccc12 [CBK268780] | 83.3% |
| Cc1cc(CC(=O)N2CCN(CCNC(=O)C3CCCC3)CC2)no1 [CBK306376] | 113% |
| CN(C)CC1CCCN(C(=O)c2cc3cc(Cl)ccc3n2C)C1 (centres unmarked) [CBK282121] | 111% |
| O=C1CC[C@@H](NCc2ccoc2)[C@H](c2cc(F)cc(F)c2)N1 [CBK282912] | 96% |
| c1ccc([C@@H]2CN(Cc3cccnc3)C[C@H]2c2cc[nH]n2)cc1 [CBK285160] | 88.9% |
| Cc1cc(C)c2nc(O)nc(O)c2c1 [CBK017986] | 94.4% |

| SMILES | viability at 28.5 h, 10 µM |
| --- | --- |
| COCC(=O)N1CCc2sccc2C1c1ccc(NC(=O)c2cccc(F)c2)cc1 (centres unmarked) [CBK286468] | 102% |
| Cc1ncsc1CCOc1cccc(C(F)(F)F)n1 [CBK115794] | 117% |
| CC(C)OC(=O)N1CCC(N(C)Cc2ccc(-c3ccc(S(C)(=O)=O)cc3)nc2)CC1 [CBK165261T] | 121% |
| N#Cc1cccc(S(=O)(=O)N2CCCCC2CO)c1 (centres unmarked) [CBK051524] | 100% |
| Nc1cc2c(ncn2[C@@H]2C[C@@H](O)[C@@H](CO)O2)c(=O)[nH]1 [CBK201196] | 88.1% |
| CN(C)CC(=O)N1CCN(c2ccc(C(=O)c3ccccc3)cc2[N+](=O)[O-])CC1 [CBK296699] | 85.4% |
| O=C(NC(=O)N1CCC2(C1)NCCc1c2[nH]c2ccccc12)c1ccccc1 (centres unmarked) [CBK046985] | 94.2% |
| CCOC(=O)CC1C(=O)NCCN1C/C=C/c1ccccc1 (centres unmarked) [CBK269922] | 90.7% |
| Cc1ccc(S(=O)(=O)N(CC(=O)Nc2cccnc2)c2ccc(F)cc2)cc1 [CBK263968] | 85.6% |
| CCC(CN1CCCC1)NC(=O)C1(c2ccccc2)CCOCC1 (centres unmarked) [CBK282758] | 96.6% |
| CN(C)CC(=O)Nc1ccc(Br)cc1C(=O)c1ccccc1Cl [CBK264663F] | 91.4% |
| CS(=O)(=O)N/N=C/c1ccc(Cl)cc1Cl [CBK026420] | 105% |
| Cn1nc(CO)c2c1CCN(CC(=O)Nc1nc(C(C)(C)C)cs1)C2 [CBK307161] | 85.7% |
| COc1ccc(C(=O)NC(NCc2ccco2)C(Cl)(Cl)Cl)cc1 (centres unmarked) [CBK262279] | 119% |
| c1cncc(-c2cncc(NCCc3c[nH]c4ccccc34)n2)c1 [CBK065186] | 89.7% |
| Cc1ccn2cc(-c3ccc4c(c3)CC(C)N4S(C)(=O)=O)cc2c1 (centres unmarked) [CBK285253] | 89% |
| COc1cc(-c2nnc(CSCc3n[nH]c(=O)[nH]3)o2)cc(OC)c1OC [CBK299814] | 99.5% |
| COc1ccc(Nc2cc(-c3ccsc3)ncn2)cc1OC [CBK090820] | 97.2% |
| CCCc1[nH]ncc1C(=O)N1CCN(c2ccnc(N(C)C)n2)CC1 [CBK305406] | 96.4% |
| OCc1ccc(-c2nccnc2NCc2ccccn2)cc1 [CBK037088] | 106% |
| CN(C)c1ccc(/C=C/CN2CCN(c3ccc([N+](=O)[O-])cc3)CC2)cc1 [CBK261904] | 96.9% |
| CC(CC(=O)N1CCOC(c2nc(C(C)(C)C)n[nH]2)C1)n1cccc1 (centres unmarked) [CBK305214] | 82.8% |

| SMILES | viability at 28.5 h, 10 µM |
| --- | --- |
| CNS(=O)(=O)c1cc(C(=O)NCc2ccccc2)ccc1OC [CBK270277] | 94.9% |
| COc1ccc2nc(Nc3nc4ccc(S(C)(=O)=O)cc4s3)sc2c1 [CBK287484] | 102% |
| COc1cccc(COc2cncc(N3CCNCC3)n2)c1OC [CBK200003] | 98.6% |
| COc1ccc(-c2cc(C(=O)NCCc3ccc(N)cc3)cnc2-c2ccc(Cl)cc2)cc1 [CBK037561] | 91.6% |
| CC1CN(c2cc(CNc3nc4ccccn4c3C#N)ccn2)CCO1 (centres unmarked) [CBK306423] | 78.7% |
| O=C(c1cccc(O)c1)N1CCN(Cc2cn3ccsc3n2)CC1 [CBK305275] | 76% |
| Fc1ccc(-c2cncc(Nc3cccc(C(F)(F)F)c3)n2)c(F)c1 [CBK065763] | 92.5% |
| CCCN(CCC)C(=O)c1ccc(NC(=O)CC)cc1 [CBK304391] | 91.8% |
| C#CCn1nnc2ccccc21 [CBK028164] | 104% |
| CCn1c(SCC(=O)Nc2ccc([N+](=O)[O-])cc2O)nnc1-c1ccccc1 [CBK268730] | 87.2% |
| O=c1cccc2n1CC1CC2CN(Cc2cccc(OCc3ccccc3)c2)C1 (centres unmarked) [CBK262426] | 102% |
| COCCN1C(=O)C2(CC(=O)N(CCc3scnc3C)C2=O)c2cc(Cl)ccc21 (centres unmarked) [CBK075321] | 93.6% |
| COc1cc(CNc2cncc(-c3ccc(N)cc3)n2)cc(OC)c1OC [CBK065483] | 96.5% |
| CCc1ccc(-c2noc(CSc3n[nH]c(=O)n3CCCOC)n2)cc1 [CBK295656] | 95.1% |
| CC(=O)Nc1ccc(S(=O)(=O)N2CCN(Cc3ccccc3[N+](=O)[O-])CC2)cc1 [CBK264170] | 89.3% |
| COc1cccc(C(=O)c2snc(Nc3ccc(F)cc3)c2N)c1 [CBK269173] | 117% |
| Cc1cccc(N2CCOC3(CCCC3)C2)n1 [CBK304446] | 82.1% |
| NCCNC(=O)c1cc2cc(OC(F)(F)F)ccc2[nH]1 [CBK107368] | 118% |
| Cc1ccc(Cl)cc1NC(=O)OCCN(C)C [CBK016906] | 98.3% |
| O=C(CCCn1ccnc1)NC(Cc1cccs1)c1nccs1 (centres unmarked) [CBK285094] | 90.1% |
| COc1ccc(CCNC(=O)N2CCN(C3CCN(C)CC3)CC2)cc1OC [CBK155897] | 94.3% |
| c1cc(CCCOc2cc(N3CCCC3)ncn2)ccn1 [CBK115897] | 84.4% |

Same assay, conditions: human, hela cells, % viability, bulk resorufin, single well

| SMILES | viability at 28.5 h, 10 µM |
| --- | --- |
| O=C(NCCc1cccs1)N1CCC2(CC1)OCc1cc(F)ccc1O2 [CBK060769] | 98.3% |
